Experimental findings from patent publication US11632953B2, “Method for controlling hematophagous or sap-feeding arthropods” (Board of Supervisors of Louisiana State University and …, priority 2016, dated 2023) are described below.

By inhibition is commonly meant the relative decrease from the control value, in per cent. Lower therefore signals a weak effect. What is called IC50 is the point on the concentration scale where inhibition reaches its midpoint.

One assay addresses Kir1.1 (Homo sapiens (Human), UniProt P48048). The assay is described as follows: thallium (Tl+) flux assay. Type of assay: cell-based, mammalian.
In a further assay the target is Kir4.1 (Homo sapiens (Human), UniProt P78508). The assay is described as follows: thallium (Tl+) flux assay. It counts as cell-based, mammalian. The note with it: means (n = 3); read-out: IC50 μM (95% Cl). The protocol: (§1) The thallium flux assay is an in vitro method of measuring conductance through a potassium ion channel. Potassium channels are also permeable to thallium ions. The modulation of a K^+ channel will thus increase or decrease thallium ion flow through the channel and thus, alter the observed fluorescence of a thallium-specific indicator dye.
(§2) Stably transfected T-Rex-HEK-293-AnKir1 cells were cultured overnight in 384-well plates in media containing DMEM, 10% dialyzed FBS, and 1 μg/mL tetracycline to induce channel expression. The next day the cell culture medium was replaced with a dye-loading solution containing assay buffer (Hanks Balanced Salt Solution with 20 mM HEPES, pH 7.3), 0.01% (w/v) Pluronic F-127 (Life Technologies, Carlsbad, Calif.), and 1.2 μM of the thallium-sensitive dye Thallos-AM (TEFlabs, Austin, Tex.). After 1 hr incubation at room temperature, the dye-loading solution was washed from the plates and replaced with 20 μL/well of assay buffer. […] To ensure the small-molecule vehicle DMSO had no direct effect on AnKir1-dependent Tl^+ flux, the assay's tolerance to different doses of DMSO was evaluated. The robustness and reproducibility of the assay was determined by comparing Tl^+ flux through tetracycline-induced and tetracycline-free cells. The Z′ value was calculated as:
(§3) Z′=1−(3SDp+3SDn)/|meanp+meann| where SD is standard deviation, and p and n are control and uninduced flux values, respectively. […] Half-inhibition concentration (IC50) values were calculated from fits using a four parameter logistic equation. […]
(§4) Tl^+ flux data were analyzed using Excel (Microsoft Corp, Redmond, Wash.) with XLfit add-in (IDBS, Guildford, Surrey, UK), OriginPro (Origin Lab, Northampton, Mass.), and GraphPad Prism (GraphPad Software, San Diego, Calif., USA) software. […] The slope of the fluorescence increase beginning 5 s after Tl^+ addition and ending 15 s after Tl^+ addition was calculated.

The target of another assay is Kir6.2/SUR1 (Homo sapiens (Human), UniProt Q09428+Q14654). The assay is described as follows: thallium (Tl+) flux assay. Type of assay: cell-based, mammalian. The protocol: as §1, §2, §3, §4
Assay [1] has as its system Ae. aegypti. The assay is described as follows: in vivo diuresis assay. The arrangement: species or system Aedes aegypti. The note with it: topical, 1.7 μg/mg mosquito. The protocol: The K^+-PBS contained the following (in mM): 92.2 NaCl, 47.5 KCl, 10 Na2HPO4, and 2 KH2PO4 (pH 7.5). Each treatment group of 5 mosquitoes was transferred into a separate graduated, packed-cell volume tube (MidSci, St. Louis, Mo.) and held for 1 h at 28° C. The volume excreted by the mosquitoes was measured visually via the graduated column at the bottom of the tube. At least 8 replicates (5 mosquitoes per replicate) were performed for each treatment.

Another assay addresses Kir7.1 (Homo sapiens (Human), UniProt O60928). Nature of the assay: thallium (Tl+) flux assay. It counts as cell-based, mammalian.
Assay [2] concerns Ae. aegypti. Nature of the assay: mosquito fecundity, eggs laid. Type of assay: in vivo, Aedes aegypti. The note with it: 72 h post blood feeding; 3.4 μg/mg mosquito. Here is the method: The mosquitoes were returned to rearing conditions for 24 h, after which they were transferred to individual egg-laying glass tubes 21 mm×70 mm (Fisher Scientific, Pittsburgh, Pa.) with a piece of coffee filter ([…] USA, Clearwater, Fla.) cut to fit the bottom of the tube. The filter was wetted with 150 μl of dH2O, and the open end of the tube was plugged with a cotton ball. The mosquitoes in their individual egg laying tubes were returned to rearing conditions for an additional 48 h, and the number of eggs laid was counted. Any mosquitoes that died during the 72 h period after blood feeding were excluded from the analysis.

The mark [3] stands for this setting: means (n = 3), read-out: IC50 μM (95% Cl).

Where only a bound is given, the exact number is not on record here.

Chain of Kir1.1 (P48048 whole entry): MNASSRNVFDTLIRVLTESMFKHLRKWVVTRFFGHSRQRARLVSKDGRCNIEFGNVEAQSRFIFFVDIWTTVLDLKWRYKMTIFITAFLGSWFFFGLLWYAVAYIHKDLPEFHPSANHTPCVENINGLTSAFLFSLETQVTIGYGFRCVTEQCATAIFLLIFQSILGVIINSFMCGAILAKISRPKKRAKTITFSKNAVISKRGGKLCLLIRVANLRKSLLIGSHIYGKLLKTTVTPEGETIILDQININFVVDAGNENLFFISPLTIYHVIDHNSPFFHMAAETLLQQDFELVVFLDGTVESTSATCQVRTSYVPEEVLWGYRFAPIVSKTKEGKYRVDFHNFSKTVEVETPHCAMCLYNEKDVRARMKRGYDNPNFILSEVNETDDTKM
Chain of Kir7.1 (O60928 whole entry): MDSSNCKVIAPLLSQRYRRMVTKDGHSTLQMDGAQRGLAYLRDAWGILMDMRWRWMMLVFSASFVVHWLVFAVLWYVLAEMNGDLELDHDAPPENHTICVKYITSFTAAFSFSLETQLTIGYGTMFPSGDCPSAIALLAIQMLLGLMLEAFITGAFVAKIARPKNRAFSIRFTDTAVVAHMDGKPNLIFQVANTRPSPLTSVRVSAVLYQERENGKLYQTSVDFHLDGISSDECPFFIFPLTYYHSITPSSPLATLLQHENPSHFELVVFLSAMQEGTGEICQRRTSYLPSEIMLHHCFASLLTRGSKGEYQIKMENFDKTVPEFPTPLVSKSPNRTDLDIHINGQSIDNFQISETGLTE
Chain of Kir6.2/SUR1 (Q14654 whole entry): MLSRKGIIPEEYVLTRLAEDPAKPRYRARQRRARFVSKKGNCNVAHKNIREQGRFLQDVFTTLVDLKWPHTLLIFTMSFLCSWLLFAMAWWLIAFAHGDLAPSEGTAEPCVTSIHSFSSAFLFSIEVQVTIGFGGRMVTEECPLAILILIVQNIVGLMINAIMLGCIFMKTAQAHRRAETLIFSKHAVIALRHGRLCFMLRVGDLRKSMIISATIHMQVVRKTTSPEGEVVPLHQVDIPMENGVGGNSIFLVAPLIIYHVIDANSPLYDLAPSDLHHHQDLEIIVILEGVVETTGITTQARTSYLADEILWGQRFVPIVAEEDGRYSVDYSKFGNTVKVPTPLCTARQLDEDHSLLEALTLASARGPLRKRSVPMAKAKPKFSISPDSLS
Chain of Kir6.2/SUR1 (Q09428 whole entry): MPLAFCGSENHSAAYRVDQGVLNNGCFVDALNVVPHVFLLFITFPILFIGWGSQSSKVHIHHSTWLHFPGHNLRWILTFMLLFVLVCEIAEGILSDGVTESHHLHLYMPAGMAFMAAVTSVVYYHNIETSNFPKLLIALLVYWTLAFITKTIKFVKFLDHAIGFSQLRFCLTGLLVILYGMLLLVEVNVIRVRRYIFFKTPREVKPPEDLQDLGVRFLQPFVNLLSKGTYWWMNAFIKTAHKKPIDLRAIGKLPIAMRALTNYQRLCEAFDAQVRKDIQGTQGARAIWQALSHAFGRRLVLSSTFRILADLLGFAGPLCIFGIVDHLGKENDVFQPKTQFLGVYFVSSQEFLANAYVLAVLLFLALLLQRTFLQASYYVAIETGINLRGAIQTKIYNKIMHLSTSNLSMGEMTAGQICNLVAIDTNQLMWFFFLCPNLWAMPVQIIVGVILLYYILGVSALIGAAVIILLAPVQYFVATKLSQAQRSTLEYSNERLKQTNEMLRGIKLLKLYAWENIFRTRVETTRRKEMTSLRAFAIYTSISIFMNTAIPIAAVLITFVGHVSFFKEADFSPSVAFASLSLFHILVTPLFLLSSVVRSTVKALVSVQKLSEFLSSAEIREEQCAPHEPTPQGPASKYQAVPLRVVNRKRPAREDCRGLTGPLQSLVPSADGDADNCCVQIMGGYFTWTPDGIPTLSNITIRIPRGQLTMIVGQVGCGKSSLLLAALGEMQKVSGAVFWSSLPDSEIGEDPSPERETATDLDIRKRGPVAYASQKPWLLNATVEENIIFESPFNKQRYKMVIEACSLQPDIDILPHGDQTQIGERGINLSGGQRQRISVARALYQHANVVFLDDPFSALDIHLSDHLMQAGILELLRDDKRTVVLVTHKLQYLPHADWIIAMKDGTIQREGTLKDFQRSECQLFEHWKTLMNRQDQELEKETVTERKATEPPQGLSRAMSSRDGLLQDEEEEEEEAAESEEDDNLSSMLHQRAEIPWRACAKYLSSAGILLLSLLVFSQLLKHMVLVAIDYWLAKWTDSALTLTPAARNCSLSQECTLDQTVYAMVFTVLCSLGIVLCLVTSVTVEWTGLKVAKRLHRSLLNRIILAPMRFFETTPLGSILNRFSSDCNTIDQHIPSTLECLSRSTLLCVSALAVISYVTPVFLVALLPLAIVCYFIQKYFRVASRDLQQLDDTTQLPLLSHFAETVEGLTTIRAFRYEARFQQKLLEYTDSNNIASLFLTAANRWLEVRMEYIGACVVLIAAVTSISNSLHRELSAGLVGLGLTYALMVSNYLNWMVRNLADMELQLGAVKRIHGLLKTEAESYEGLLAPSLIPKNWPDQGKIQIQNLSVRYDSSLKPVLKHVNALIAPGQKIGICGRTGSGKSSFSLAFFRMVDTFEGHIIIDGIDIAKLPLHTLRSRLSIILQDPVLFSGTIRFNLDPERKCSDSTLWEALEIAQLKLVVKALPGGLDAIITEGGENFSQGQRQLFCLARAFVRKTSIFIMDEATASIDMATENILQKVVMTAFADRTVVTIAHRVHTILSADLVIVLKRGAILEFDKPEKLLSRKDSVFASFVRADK
Chain of Kir4.1 (P78508 whole entry): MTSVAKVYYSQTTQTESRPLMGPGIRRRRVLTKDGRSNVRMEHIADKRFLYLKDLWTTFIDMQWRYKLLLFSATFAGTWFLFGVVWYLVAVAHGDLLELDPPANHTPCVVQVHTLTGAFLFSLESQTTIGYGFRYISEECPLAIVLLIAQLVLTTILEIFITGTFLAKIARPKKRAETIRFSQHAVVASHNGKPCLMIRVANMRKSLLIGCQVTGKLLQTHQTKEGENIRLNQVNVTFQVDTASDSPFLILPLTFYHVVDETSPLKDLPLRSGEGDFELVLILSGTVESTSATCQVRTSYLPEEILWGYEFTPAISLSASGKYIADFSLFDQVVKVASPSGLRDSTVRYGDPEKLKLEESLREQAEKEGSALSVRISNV

Turning to `O=C(Cn1nc(C(F)(F)F)c2c1CCCC2)N1CCCc2ccccc21` [VU041, 1-(3,4-dihydroquinolin-1(2H)-yl)-2-(3-(trifluoromethyl)-4,5,6,7-tetrahydro-1H-indazol-1-yl)ethan-1-one], the inhibition at 30 µM against Kir1.1 (concentration of 30 μM), against Kir6.2/SUR1 (concentration of 30 μM) and against Kir7.1 (concentration of 30 μM) was < 10% each time. The IC50 on Kir1.1 (setting [3]), at Kir4.1, on Kir6.2/SUR1 (setting [3]) and on Kir7.1 (setting [3]) was > 30 µM each time. Further, the “lowering of diuretic capacity compared to controls” value in the assay with Ae. aegypti [1] is given as ~51%. Besides, the “median number of eggs laid per mosquito” value in the assay on Ae. aegypti [2] is given as “significantly lower median number of eggs per mosquito”.
